System: leader cell sub-population (H1299 leader cells)
Experiment: drug screening of rare lung cancer cells isolated by spatiotemporal genomic and cellular analysis (SaGA)
Type: cell-based, human
Details: rare lung cancer cells identified by SaGA, then drug screening; see FIG. 2A
Source text: See e.g., Burrell et al., Nature, 2013, 501:338-345. Spatiotemporal genomic and cellular analysis (SaGA) is a technique which involves a combination of microscopy and genomics to isolate rare cells. See Konen et al. Nat Comm, 2017, 8:15078. Dendra2 is a photoconvertible fluorophore which emits green fluorescence. However, when excited by 405 nm light, green fluorescence is converted to red fluorescence due to cleavage of a histidine. Therefore, with single cell precision, any cancer cell expressing Dendra2 can be optically highlighted (turned red) using a point scanning confocal microscope. A region of interest is drawn around the cell(s) of interest, based upon by transmitted light or fluorescent protein tags. This region can be exposed to a 405 nm laser, resulting in near instantaneous photoconversion of Dendra2, and photomarking the cell red. Single cells can be photoconverted, without inducing any measurable photoconversion of neighboring cells. Cells are extracted from the 3-D environment using dispase for 15 minutes (collagenase for collagen). Cells are then sorted to separate red photoconverted cells from green cells using a FACS. Isolated cells are grown in culture using standard cell culture techniques. Spatiotemporal genomic and cellular analysis (SaGA) was used to identify rare lung cancer cells which were then subject to drug screening.

## CCCCC(CC)CNC(=N)NC(=N)NCCCCCCNC(=N)NC(=N)NCC(CC)CCCC (stereo not shown) [alexidine, 1,1′-(hexane-1,6-diyl)bis(5-(2-ethylhexyl)biguanidine)]
  effect on metastasis / invasive cell pack: disrupt metastasis by targeting a rare cell type within the invasive cell pack

From patent publication US12582618B2, “Bis-biguanide compounds, pharmaceutical compositions and uses in managing cancer” (Emory University, priority 2019, dated 2026)
